{
  "source": "patent US8140141B2",
  "about": "“Devices and methods for fluorescent inspection and/or removal of material in a sample” (University of Utah Research Foundation, priority 2006, dated 2012)",
  "key": {"[1]": {"details": "conventional blue dyes for sentinel lymph node procedures, after injection into tissue; cited from earlier work"}, "[2]": {"system": "P-388 murine leukemia cells"}, "[3]": {"system": "HCT-116 human colon tumor cells"}},
  "data": [
    {"molecule": "CN(C)c1ccc2nc3ccc(=[N+](C)C)cc-3sc2c1", "note": "[methylene blue]", "values": [
      {"measurement": "Passage out of lymphatic ducts into surrounding tissue", "setting": "[1]", "value": "tend to flow out of the lymphatic ducts into the surrounding tissue very quickly"}
    ]},
    {"molecule": "CCN(CC)c1ccc(C(=C2C=CC(=[N+](CC)CC)C=C2)c2cc(S(=O)(=O)[O-])ccc2S(=O)(=O)[O-])cc1.[Na+]", "note": "[Lymphazurine]", "values": [
      {"measurement": "Passage out of lymphatic ducts into surrounding tissue", "setting": "[1]", "value": "tend to flow out of the lymphatic ducts into the surrounding tissue very quickly"}
    ]},
    {"molecule": "doxorubicin-cobalamin conjugate", "values": [
      {"measurement": "Cellular uptake", "setting": "[2]", "value": "can be observed"},
      {"measurement": "Cellular uptake", "setting": "[3]", "value": "can be observed"}
    ]}
  ]
}
